US20250171459A1, “2-METHYL-4',5'-DIHYDROSPIRO[PIPERIDINE-4,7'-THIENO[2,3-C]PYRAN] DERIVATIVES AS INHIBITORS OF APOL1 AND METHODS OF USING SAME” (Vertex Pharmaceuticals Incorporated, priority 2022, published 2025)

molecular target: T1, APOL1 (Homo sapiens, UniProt O14791); assay: MultiTox-Fluor Multiplex Cytotoxicity Assay in tet-inducible APOL1 T-REx-HEK293 cells (cell rescue, ratio of dead to live cells); type: cell-based; details: tet-inducible transgenic APOL1 T-REx-HEK293 cell lines, 50 ng/mL tet, 24 hours; read-out: IP50 (i.e., IC50 for cell proliferation)
T1 sequence (O14791 1-398 S342G/I384M): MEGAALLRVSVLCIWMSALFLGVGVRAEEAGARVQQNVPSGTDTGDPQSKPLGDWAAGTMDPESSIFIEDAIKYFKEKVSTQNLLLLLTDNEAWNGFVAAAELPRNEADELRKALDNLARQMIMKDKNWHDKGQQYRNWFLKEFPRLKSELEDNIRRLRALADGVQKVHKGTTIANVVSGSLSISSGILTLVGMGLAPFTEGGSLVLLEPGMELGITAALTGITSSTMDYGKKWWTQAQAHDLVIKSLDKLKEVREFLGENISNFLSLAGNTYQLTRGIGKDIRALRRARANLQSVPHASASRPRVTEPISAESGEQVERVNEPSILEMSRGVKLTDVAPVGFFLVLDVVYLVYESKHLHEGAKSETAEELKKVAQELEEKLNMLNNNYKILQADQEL
Summary of the method: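 T-REx-HEK293 cells with tet-inducible APOL1 were treated with compound (10 μM top, 10-point 3-fold dilution, duplicate) plus 50 ng/mL tetracycline for 24 h at 37° C, in DMEM with 2% tet-free FBS. MultiTox-Fluor protease signals gave a dead/live ratio, normalized to no tet (100% viability) and tet alone (0%).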

`CCc1cc2c(s1)CCOC21CCN(Cc2ccc(NC3CN(S(C)(=O)=O)C3)nc2)[C@@H](C)C1` (stereo partly drawn) [Compound 216] and `CCc1cc2c(s1)CCO[C@@]21CCN(C[C@H]2C[C@@H](NS(C)(=O)=O)C2)[C@@H](C)C1` [Compound 410] cannot be ordered by IC50: less than 100 nM for the first, less than 100 nM for the second.

First: CCc1cc2c(s1)CCO[C@@]21CCN(C[C@H]2C[C@@H](NC(=O)C3CC3C(=O)N(C)C)C2)[C@@H](C)C1 (stereo partly drawn) [Compound 367]
Second: CCc1cc2c(s1)CCO[C@@]21CCN(C[C@H]2C[C@@H](NC(=O)C3CC(=O)C3(C)C)C2)[C@@H](C)C1 (stereo partly drawn) [Compound 318]
The IC50 of the first is higher: 100 to 500 nM for the first, less than 100 nM for the second. The second is the more potent here.

`C[C@H]1C[C@@]2(CCN1Cc1ccc(N3CCCC3=O)cc1)OCCc1c2sc(Cl)c1CO` [Compound 714] and `C[C@H]1C[C@@]2(CCN1Cc1ccc(N3CCCC3=O)cc1)OCCc1cc(Cl)sc12` [Compound 647] cannot be ordered by IC50: less than 100 nM for the first, less than 100 nM for the second.

Compared with `C[C@H]1C[C@@]2(CCN1Cc1nccn1C)OCCc1cc(CC(F)F)sc12` [Compound 592], `C[C@H]1C[C@@]2(CCN1Cc1cncn1C)OCCc1cc(CC(F)F)sc12` [Compound 587] is lower in IC50: 500 to 1000 nM for the first, 100 to 500 nM for the second.

`CCc1cc2c(s1)CCO[C@@]21CCN(C[C@H]2C[C@@H](NC(=O)C3CCN(C(C)=O)CC3)C2)[C@@H](C)C1` [Compound 355] and `CCc1cc2c(s1)CCO[C@@]21CCN(C[C@H]2C[C@@H](NC(=O)CC3CCC(F)(F)CC3)C2)[C@@H](C)C1` [Compound 314] cannot be ordered by IC50: less than 100 nM for the first, less than 100 nM for the second.

Compared with `C[C@H]1C[C@@]2(CCN1Cc1cnn(CC3CC4(CC4)C(=O)O3)c1)OCCc1c2sc(C(F)(F)F)c1CO` (stereo partly drawn) [Compound 981], `C[C@H]1C[C@@]2(CCN1Cc1cnn(CC3(O)CCOC3=O)c1)OCCc1c2sc(C(F)(F)F)c1CO` (stereo partly drawn) [Compound 951] is higher in IC50: less than 100 nM for the first, 500 to 1000 nM for the second. The first is the more potent here.

`C[C@H]1C[C@@]2(CCN1Cc1cnn(CCS(C)(=O)=O)c1)OCCc1cc(C(F)(F)C(F)F)sc12` [Compound 1011, (2′S, 7R)-2′-methyl-1′-[[1-(2-methylsulfonylethyl)pyrazol-4-yl]methyl]-2-(1,1,2,2-tetrafluoroethyl)spiro[4,5-dihydrothieno[2,3-c]pyran-7,4′-piperidine]] and `Cc1c(Cl)sc2c1C(O)CO[C@@]21CCN(Cc2cnn(CCS(C)(=O)=O)c2)[C@@H](C)C1` (stereo partly drawn) [Compound 858, (2′S, 7R)-2-chloro-2′,3-dimethyl-1′-[[1-(2-methylsulfonylethyl)pyrazol-4-yl]methyl]spiro[4,5-dihydrothieno[2,3-c]pyran-7,4′-piperidine]-4-ol] cannot be ordered by IC50: less than 100 nM for the first, less than 100 nM for the second.

First: CCc1cc2c(s1)CCO[C@@]21CCN(C[C@H]2C[C@@H](NC(=O)CCN3CCCC3=O)C2)[C@@H](C)C1 [Compound 366]
Second: CCc1cc2c(s1)CCO[C@@]21CCN(C[C@H]2C[C@@H](NC(=O)CN3CCc4ccccc43)C2)[C@@H](C)C1 [Compound 337]
The IC50 of the first is higher: 100 to 500 nM for the first, less than 100 nM for the second.

`CCc1cc2c(s1)CCO[C@@]21CCN(C[C@H]2C[C@@H](NC(=O)Oc3ccc(F)cc3)C2)[C@@H](C)C1` [Compound 377] and `CCc1cc2c(s1)CCO[C@@]21CCN(C[C@H]2C[C@@H](NS(=O)(=O)Cc3cccc(C)c3)C2)[C@@H](C)C1` [Compound 393] cannot be ordered by IC50: less than 100 nM for the first, less than 100 nM for the second.

`C[C@H]1C[C@@]2(CCN1CC(F)F)OCCc1cc(CC(F)F)sc12` [Compound 616] and `C[C@H]1C[C@@]2(CCN1Cc1ncccc1F)OCCc1cc(CC(F)F)sc12` [Compound 589] fall in the same range of IC50: 500 to 1000 nM for the first, 500 to 1000 nM for the second.

Compared with `CCc1cc2c(s1)CCO[C@@]21CCN(CC2CN(C(=O)c3c[nH]c(C(F)(F)F)n3)C2)[C@@H](C)C1` [Compound 460], `CCc1cc2c(s1)CCO[C@@]21CCN(CC(O)CC(F)(F)F)[C@@H](C)C1` (stereo partly drawn) [Compound 244] is higher in IC50: less than 100 nM for the first, 100 to 500 nM for the second.

`Cn1cc(CN2CCC3(CC2)OCCc2sc(Cl)cc23)cn1` [Compound 1168] and `CCc1cc2c(s1)CCOC21CCN(Cc2cn(C3CCC3(F)F)nn2)CC1` (stereo not drawn) [Compound 1123] fall in the same range of IC50: 500 to 1000 nM for the first, 500 to 1000 nM for the second.

`C[C@H]1C[C@@]2(CCN1Cc1cnn(CC(O)CC(F)(F)F)c1)OCCc1c2sc(C(F)(F)F)c1CO` (stereo partly drawn) [Compound 892] and `C[C@H]1C[C@@]2(CCN1Cc1cnn(CCC(N)=O)c1)OCCc1c2sc(C(F)(F)F)c1CO` [Compound 896, 3-[4-[[(2′S, 7R)-3-(hydroxymethyl)-2′-methyl-2-(trifluoromethyl)spiro[4,5-dihydrothieno[2,3-c]pyran-7,4′-piperidine]-1′-yl]methyl]pyrazol-1-yl]propanamide] cannot be ordered by IC50: less than 100 nM for the first, less than 100 nM for the second.

`C[C@H]1C[C@@]2(CCN1Cc1cnn(CC(O)C3(O)CCOC3)c1)OCCc1c2sc(C(F)(F)F)c1CO` (stereo partly drawn) [Compound 941] and `C[C@H]1C[C@@]2(CCN1Cc1cnn(CC(O)C3CCCOC3)c1)OCCc1c2sc(C(F)(F)F)c1CO` (stereo partly drawn) [Compound 946] cannot be ordered by IC50: less than 100 nM for the first, less than 100 nM for the second.

First: C[C@H]1C[C@@]2(CCN1Cc1cn(CCS(C)(=O)=O)nn1)OCC(F)(F)c1cc(Cl)sc12 [Compound 862, (2S,4R)-2′-chloro-4′,4′-difluoro-2-methyl-1-((1-(2-(methylsulfonyl)ethyl)-1H-1,2,3-triazol-4-yl)methyl)-4′,5′-dihydrospiro[piperidine-4,7′-thieno[2,3-c]pyran]]
Second: C[C@H]1C[C@@]2(CCN1Cc1cn(CCS(C)(=O)=O)nn1)OC[C@](O)(C(F)F)c1cc(Cl)sc12 [Compound 832]
The IC50 of the first is higher: 100 to 500 nM for the first, less than 100 nM for the second. The second is the more potent here.

`C[C@H]1C[C@@]2(CCN1Cc1cn(CC(O)C(C)(C)O)nn1)OCCc1c2sc(C(F)(F)F)c1CO` (stereo partly drawn) [Compound 1005] and `CNC(=O)Cn1cc(CN2CC[C@]3(C[C@@H]2C)OCCc2c3sc(C(F)(F)F)c2CO)cn1` [Compound 901] cannot be ordered by IC50: less than 100 nM for the first, less than 100 nM for the second.

`C[C@H]1C[C@@]2(CCN1Cc1cc(F)cc(F)c1O)OC[C@H](O)c1cc(Cl)sc12` [Compound 774] and `C[C@H]1C[C@@]2(CCN1CC1CCOCC1)OC[C@H](O)c1cc(Cl)sc12` [Compound 789] fall in the same range of IC50: 500 to 1000 nM for the first, 500 to 1000 nM for the second.

First: CCc1cc2c(s1)CCO[C@@]21CCN(Cc2cn(CCN(CCO)CCO)nn2)[C@@H](C)C1 [Compound 182]
Second: CCc1cc2c(s1)CCO[C@@]21CCN(Cc2cn(CCO)nn2)[C@@H](C)C1 [Compound 154]
The IC50 of the first is higher: 100 to 500 nM for the first, less than 100 nM for the second.

`Cc1cc2c(s1)CCO[C@@]21CCN(C2CCCC2O)[C@@H](C)C1` (stereo partly drawn) [Compound 505] and `CCc1cc2c(s1)CCO[C@@]21CCN(Cc2cn(C[C@H]3C[C@@H](O)C3)nn2)[C@@H](C)C1` [Compound 126] cannot be ordered by IC50: less than 100 nM for the first, less than 100 nM for the second.

First: C[C@H]1C[C@@]2(CCN1Cc1cnn(CC(O)c3ccccn3)c1)OCCc1c2sc(C(F)(F)F)c1CO (stereo partly drawn) [Compound 939]
Second: CCCNC(=O)c1c(C(F)(F)F)sc2c1CCO[C@@]21CCN(Cc2cn(CCS(C)(=O)=O)nn2)[C@@H](C)C1 [Compound 1007, (2′S,7R)-2′-methyl-1′-[[1-(2-methylsulfonylethyl)triazol-4-yl]methyl]-N-propyl-2-(trifluoromethyl)spiro[4,5-dihydrothieno[2,3-c]pyran-7,4′-piperidine]-3-carboxamide]
The IC50 of the first is lower: less than 100 nM for the first, 500 to 1000 nM for the second. The first is the more potent here.

`CCc1cc2c(s1)CCO[C@@]21CCN(Cc2cn(CC3CS(=O)(=O)CCO3)nn2)[C@@H](C)C1` (stereo partly drawn) [Compound 96] and `CCc1cc2c(s1)CCOC21CCN(Cc2cn(CC(O)C3CCCO3)nn2)C(C)C1` (stereo not drawn) [Compound 117] cannot be ordered by IC50: less than 100 nM for the first, less than 100 nM for the second.

`CCc1cc2c(s1)CCOC21CCN(Cc2cn(CC(=O)NC3COC3)nn2)CC1` [Compound 1122] and `CCc1cc2c(s1)CCOC21CCN(Cc2cn(CCC(=O)NCC(C)O)nn2)CC1` (stereo not drawn) [Compound 1102] fall in the same range of IC50: 500 to 1000 nM for the first, 500 to 1000 nM for the second.

Compared with `CCc1cc2c(s1)CCOC21CCN(Cc2cnc(C(F)(F)F)[nH]2)CC1` [Compound 1144], `CCc1cc2c(s1)CCO[C@@]21CCN(Cc2c[nH]c(C)n2)[C@@H](C)C1` [Compound 288] is lower in IC50: 500 to 1000 nM for the first, less than 100 nM for the second. The second is the more potent here.

First: CCc1cc2c(s1)CCO[C@@]21CCN(Cc2cn(CC(O)(CO)CO)nn2)[C@@H](C)C1 [Compound 89]
Second: CCc1cc2c(s1)CCO[C@@]21CCN(Cc2cn(C(C)(CO)CO)nn2)[C@@H](C)C1 [Compound 177]
The IC50 of the first is lower: less than 100 nM for the first, 500 to 1000 nM for the second. The first is the more potent here.

`C[C@H]1C[C@@]2(CCN1Cc1ccc(NS(=O)(=O)C3CC3)nc1)OCC(O)c1cc(Cl)sc12` (stereo partly drawn) [Compound 824] and `COC1CO[C@@]2(CCN(Cc3cnn(CCS(C)(=O)=O)c3)[C@@H](C)C2)c2sc(Cl)cc21` (single isomer, unassigned) [Compound 842, (2′S, 7R)-2-chloro-4-methoxy-2′-methyl-1′-[[1-(2-methylsulfonylethyl)pyrazol-4-yl]methyl]spiro[4,5-dihydrothieno[2,3-c]pyran-7,4′-piperidine]] cannot be ordered by IC50: less than 100 nM for the first, less than 100 nM for the second.

`C[C@H]1C[C@@]2(CCN1C[C@H]1C[C@@H](NC(=O)C3CC3(F)F)C1)OCCc1cc(CC(F)F)sc12` (stereo partly drawn) [Compound 551] and `C[C@H]1C[C@@]2(CCN1Cc1cn[nH]c1)OCCc1cc(Cl)sc12` [Compound 698, (2′S, 7R)-2-chloro-2′-methyl-1′-(1H-pyrazol-4-ylmethyl)spiro[4,5-dihydrothieno[2,3-c]pyran-7,4′-piperidine]] cannot be ordered by IC50: less than 100 nM for the first, less than 100 nM for the second.

Compared with `CCc1cc2c(s1)CCO[C@@]21CCN(Cc2cn(Cc3ccnnc3)nn2)[C@@H](C)C1` [Compound 41], `Cc1cncc(N2CCC(CN3CC[C@]4(C[C@@H]3C)OCCc3c4sc(Cl)c3CO)CC2)n1` [Compound 731] is higher in IC50: less than 100 nM for the first, 500 to 1000 nM for the second.
